{"source": "ChEMBL document CHEMBL1158941", "about": "“Diterpenes from the Pohnpeian marine sponge Chelonaplysilla sp” (J Nat Prod, 1991)", "key": {"Bacillus subtilis [1]": {"tested_on": "Bacillus subtilis", "experiment": "Antimicrobial activity against Bacillus subtilis at 5 ug/disk", "assay_type": "functional, organism-based"}, "Bacillus subtilis [2]": {"tested_on": "Bacillus subtilis", "experiment": "Antimicrobial activity against Bacillus subtilis at 50 ug/disk", "assay_type": "functional, organism-based"}}, "note": "The source made the active and inactive calls. The calls are words filed in the database; no cut-off is given here.", "data": [{"smiles": "C=C([C@@H]1[C@@H]2OC(=O)C[C@H]1[C@H](OC(C)=O)O2)[C@H]1CC[C@H]2C(C)(C)CCCC(=C)[C@]12C", "values": [{"measurement": "Activity", "setting": "Bacillus subtilis [1]", "value": "Active"}]}, {"smiles": "C=C1CCCC(C)(C)[C@@H]2CC[C@@](C)([C@@H]3[C@@H]4OC(=O)C[C@H]3[C@H](OC(C)=O)O4)[C@H]12", "values": [{"measurement": "Activity", "setting": "Bacillus subtilis [1]", "value": "Active"}]}, {"smiles": "C=C1CCCC(C)(C)[C@@H]2CC[C@@](C)([C@@H]3[C@H]4CC(=O)O[C@H]4O[C@H]3O)[C@H]12", "values": [{"measurement": "Activity", "setting": "Bacillus subtilis [2]", "value": "Active"}]}]}
